Patent US5250683A, “Certain substituted taxanes and pharmaceutical compositions containing them” (Florida State University, priority 1992, dated 1993)

test system: tubulin; assay: Tubulin binding assay (Tubulin Assay), method of Parness et al.; details: compared to taxol and taxotere

Compound	Tubulin Assay Init. Peak	Tubulin Assay Rel. Rate
CC(=O)O[C@H]1C(=O)[C@@]2(C)[C@H]([C@H](OC(=O)c3ccccc3)[C@]3(O)C[C@H](OC(=O)[C@H](O)[C@@H](NC(=O)c4ccccc4)c4ccc(F)cc4)C(C)=C1C3(C)C)[C@]1(OC(C)=O)CO[C@@H]1C[C@@H]2O [Example 9, 3'-desphenyl-3'-(4-fluorophenyl) taxol]	100	
CC(=O)O[C@H]1C(=O)[C@@]2(C)[C@H]([C@H](OC(=O)c3ccccc3)[C@]3(O)C[C@H](OC(=O)[C@H](O)[C@@H](NC(=O)c4ccc(F)cc4)c4ccc(Cl)cc4)C(C)=C1C3(C)C)[C@]1(OC(C)=O)CO[C@@H]1C[C@@H]2O [Example 23, N-debenzoyl-N-(4-fluorobenzoyl)-3'-desphenyl-3'-(4-chlorophenyl) taxol]	63	88
COc1ccc([C@H](NC(=O)c2ccc(Cl)cc2)[C@@H](O)C(=O)O[C@H]2C[C@@]3(O)[C@@H](OC(=O)c4ccccc4)[C@@H]4[C@]5(OC(C)=O)CO[C@@H]5C[C@H](O)[C@@]4(C)C(=O)[C@H](OC(C)=O)C(=C2C)C3(C)C)cc1 [Example 29, N-debenzoyl-N-(4-chlorobenzoyl)-3'-desphenyl-3'-(4-methoxyphenyl) taxol]	42	72
CC(=O)O[C@@]12CO[C@@H]1C[C@H](O)[C@@]1(C)C(=O)[C@H](O)C3=C(C)[C@@H](OC(=O)[C@H](O)[C@@H](NC(=O)OC(C)(C)C)c4ccccc4)C[C@@](O)([C@@H](OC(=O)c4ccccc4)[C@H]21)C3(C)C [Taxotere, taxotere, reference compound]	100	
CC(=O)O[C@H]1C(=O)[C@@]2(C)[C@H]([C@H](OC(=O)c3ccccc3)[C@]3(O)C[C@H](OC(=O)[C@H](O)[C@@H](NC(=O)c4ccccc4)c4ccc(Cl)cc4)C(C)=C1C3(C)C)[C@]1(OC(C)=O)CO[C@@H]1C[C@@H]2O [Example 4, 3'-desphenyl-3'-(4-chlorophenyl) taxol]	94	97
CC(=O)O[C@H]1C(=O)[C@@]2(C)[C@H]([C@H](OC(=O)c3ccccc3)[C@]3(O)C[C@H](OC(=O)[C@H](O)[C@@H](NC(=O)c4ccc(Br)cc4)c4ccc(F)cc4)C(C)=C1C3(C)C)[C@]1(OC(C)=O)CO[C@@H]1C[C@@H]2O [Example 19, N-debenzoyl-N-(4-bromobenzoyl)-3'-desphenyl-3'-(4-fluorophenyl) taxol]	88	100
CC(=O)O[C@H]1C(=O)[C@@]2(C)[C@H]([C@H](OC(=O)c3ccccc3)[C@]3(O)C[C@H](OC(=O)[C@H](O)[C@@H](NC(=O)c4ccc(Br)cc4)c4ccc(Cl)cc4)C(C)=C1C3(C)C)[C@]1(OC(C)=O)CO[C@@H]1C[C@@H]2O [Example 25, N-debenzoyl-N-(4-bromobenzoyl)-3'-desphenyl-3'-(4-chlorophenyl) taxol]	60	83
COc1ccc([C@H](NC(=O)c2ccccc2)[C@@H](O)C(=O)O[C@H]2C[C@@]3(O)[C@@H](OC(=O)c4ccccc4)[C@@H]4[C@]5(OC(C)=O)CO[C@@H]5C[C@H](O)[C@@]4(C)C(=O)[C@H](OC(C)=O)C(=C2C)C3(C)C)cc1 [Example 3, 3'-desphenyl-3'-(4-methoxyphenyl) taxol]	59	87
COc1ccc(C(=O)N[C@@H](c2ccccc2)[C@@H](O)C(=O)O[C@H]2C[C@@]3(O)[C@@H](OC(=O)c4ccccc4)[C@@H]4[C@]5(OC(C)=O)CO[C@@H]5C[C@H](O)[C@@]4(C)C(=O)[C@H](OC(C)=O)C(=C2C)C3(C)C)cc1 [Example 14, N-debenzoyl-N-(4-methoxybenzoyl) taxol]	95	99
CC(=O)O[C@H]1C(=O)[C@@]2(C)[C@H]([C@H](OC(=O)c3ccccc3)[C@]3(O)C[C@H](OC(=O)[C@H](O)[C@@H](NC(=O)c4ccc(C)cc4)c4ccc(Cl)cc4)C(C)=C1C3(C)C)[C@]1(OC(C)=O)CO[C@@H]1C[C@@H]2O [Example 17, N-debenzoyl-N-(4-methylbenzoyl)-3'-desphenyl-3'-(4-chlorophenyl) taxol]	101	98
CC(=O)O[C@H]1C(=O)[C@@]2(C)[C@H]([C@H](OC(=O)c3ccccc3)[C@]3(O)C[C@H](OC(=O)[C@H](O)[C@@H](NC(=O)c4ccc(F)cc4)c4ccccc4)C(C)=C1C3(C)C)[C@]1(OC(C)=O)CO[C@@H]1C[C@@H]2O [Example 16, N-debenzoyl-N-(4-fluorobenzoyl) taxol]	66	90
COc1ccc([C@H](NC(=O)c2ccc(Br)cc2)[C@@H](O)C(=O)O[C@H]2C[C@@]3(O)[C@@H](OC(=O)c4ccccc4)[C@@H]4[C@]5(OC(C)=O)CO[C@@H]5C[C@H](O)[C@@]4(C)C(=O)[C@H](OC(C)=O)C(=C2C)C3(C)C)cc1 [Example 30, N-debenzoyl-N-(4-bromobenzoyl)-3'-desphenyl-3'-(4-methoxyphenyl) taxol]	44	70
CC(=O)O[C@H]1C(=O)[C@@]2(C)[C@H]([C@H](OC(=O)c3ccccc3)[C@]3(O)C[C@H](OC(=O)[C@H](O)[C@@H](NC(=O)c4ccc(C(C)(C)C)cc4)c4ccc(Cl)cc4)C(C)=C1C3(C)C)[C@]1(OC(C)=O)CO[C@@H]1C[C@@H]2O [Example 26, N-debenzoyl-N-(4-t-butylbenzoyl)-3'-desphenyl-3'-(4-chlorophenyl) taxol]	13	23
CC(=O)O[C@H]1C(=O)[C@@]2(C)[C@H]([C@H](OC(=O)c3ccccc3)[C@]3(O)C[C@H](OC(=O)[C@H](O)[C@@H](NC(=O)c4ccccc4)c4ccccc4)C(C)=C1C3(C)C)[C@]1(OC(C)=O)CO[C@@H]1C[C@@H]2O [Taxol, taxol, reference compound]	100	98
COc1ccc([C@H](NC(=O)c2ccc(C)cc2)[C@@H](O)C(=O)O[C@H]2C[C@@]3(O)[C@@H](OC(=O)c4ccccc4)[C@@H]4[C@]5(OC(C)=O)CO[C@@H]5C[C@H](O)[C@@]4(C)C(=O)[C@H](OC(C)=O)C(=C2C)C3(C)C)cc1 [Example 22, N-debenzoyl-N-(4-methylbenzoyl)-3'-desphenyl-3'-(4-methoxyphenyl) taxol]	77	96
CC(=O)O[C@H]1C(=O)[C@@]2(C)[C@H]([C@H](OC(=O)c3ccccc3)[C@]3(O)C[C@H](OC(=O)[C@H](O)[C@@H](NC(=O)c4ccc(C(C)(C)C)cc4)c4ccc(F)cc4)C(C)=C1C3(C)C)[C@]1(OC(C)=O)CO[C@@H]1C[C@@H]2O [Example 27, N-debenzoyl-N-(4-t-butylbenzoyl)-3'-desphenyl-3'-(4-fluorophenyl) taxol]	55	82
